Measurements from the CheMixHub ionic liquid set.

Assay: xn = mol fraction of the nth substance listed
Details: 100 kPa; for electrical conductivity: frequency 0.002 MHz, x2 = 0

CCCCCCCCCCCC[N+](C)(C)C.[Br-] + CCCCCCCCCCCCCCCC[n+]1ccn(C)c1.[Cl-] + O
Details | electrical conductivity [S/m]
303.15 K, x1 = 0.0001836 | 0.105
313.15 K, x1 = 0.0003475 | 0.207
323.15 K, x1 = 0.0001544 | 0.129

CCCC[P+](CCCC)(CCCC)CCCC.F[B-](F)(F)F + C1CCOC1
298.15 K
Details | viscosity [mPa·s]
x1 = 0.0008214 | 0.468
x1 = 0.001232 | 0.473
x1 = 0.001649 | 0.478
x1 = 0.002058 | 0.483
x1 = 0.002474 | 0.489
x1 = 0.002883 | 0.495

C[N+](C)(C)CCC[N+]1(C)CCCCC1.N#C[N-]C#N.N#C[N-]C#N + CCO
viscosity [mPa·s]
Details | x1 = 0.0999 | x1 = 0.2001 | x1 = 0.3002 | x1 = 0.3999 | x1 = 0.5002 | x1 = 0.6001 | x1 = 0.7003 | x1 = 0.7998 | x1 = 0.8995 | x1 = 1
293.15 K | 6.82 | 19.7 | 47.6 | 115 | 280 | 596 | 1088 | 1716 | 2737 | 4503
303.15 K | 5.39 | 15 | 33 | 73.3 | 164 | 330 | 545 | 830 | 1240 | 1837
313.15 K | 4.38 | 11.6 | 24.1 | 49.6 | 106 | 211 | 310 | 461 | 624 | 860
323.15 K | 3.68 | 9.19 | 18.1 | 35.2 | 70.5 | 132 | 192 | 267 | 360 | 460
333.15 K | 3.18 | 7.55 | 14.1 | 26.2 | 50.7 | 85.9 | 126 | 171 | 219 | 270
